Measured values as given in BindingDB's records for patent US20250019357 (Tactogen, 2025).

How the values were obtained:
[1] = biological target: Sodium-dependent serotonin transporter (Homo sapiens, UniProt P31645); assay: Human Serotonin Transporter (SERT, SLC6A4) Functional Antagonist Uptake Assay
Procedure: (§1) Benzofuran derivatives were evaluated for inhibiting the human 5-HT transporter (hSERT) as expressed in CHO cells using an antagonist radioligand assay (Tatsumi, M. et al. (1999), Eur. J. Pharmacol., 368: 277-283).

[2] = biological target: 5-hydroxytryptamine receptor 1B (Homo sapiens, UniProt P28222); assay: 5-HT1BR cAMP Secondary Messenger Agonist Assay
Description: The 5-HT1BR cAMP secondary messenger agonist assay used a panel of CHO-K1 cell lines stably expressing non-tagged GPCRs that endogenously signal through cAMP. Hit Hunter cAMP assays monitored the activation of a GPCR via Gi and Gs secondary messenger signaling in a homogenous, non-imaging assay format using DiscoverX Enzyme Fragment Complementation (EFC) with β-galactosidase as the functional endpoint.

[3] = Human Serotonin Transporter (SERT, SLC6A4) Functional Antagonist Uptake Assay
Procedure: as §1

Sequence of 5-hydroxytryptamine receptor 1B (P28222 whole entry, the tested form may be a part): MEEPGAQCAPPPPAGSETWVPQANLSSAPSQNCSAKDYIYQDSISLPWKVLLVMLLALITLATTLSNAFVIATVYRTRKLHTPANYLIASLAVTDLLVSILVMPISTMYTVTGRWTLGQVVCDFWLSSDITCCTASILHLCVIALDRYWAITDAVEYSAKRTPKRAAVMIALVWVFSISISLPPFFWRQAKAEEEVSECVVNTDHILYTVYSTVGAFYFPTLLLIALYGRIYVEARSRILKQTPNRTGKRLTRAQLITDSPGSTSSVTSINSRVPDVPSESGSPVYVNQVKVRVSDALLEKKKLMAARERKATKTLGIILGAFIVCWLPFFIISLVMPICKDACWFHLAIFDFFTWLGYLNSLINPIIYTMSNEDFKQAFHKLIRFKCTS
Sequence of Sodium-dependent serotonin transporter (P31645 whole entry): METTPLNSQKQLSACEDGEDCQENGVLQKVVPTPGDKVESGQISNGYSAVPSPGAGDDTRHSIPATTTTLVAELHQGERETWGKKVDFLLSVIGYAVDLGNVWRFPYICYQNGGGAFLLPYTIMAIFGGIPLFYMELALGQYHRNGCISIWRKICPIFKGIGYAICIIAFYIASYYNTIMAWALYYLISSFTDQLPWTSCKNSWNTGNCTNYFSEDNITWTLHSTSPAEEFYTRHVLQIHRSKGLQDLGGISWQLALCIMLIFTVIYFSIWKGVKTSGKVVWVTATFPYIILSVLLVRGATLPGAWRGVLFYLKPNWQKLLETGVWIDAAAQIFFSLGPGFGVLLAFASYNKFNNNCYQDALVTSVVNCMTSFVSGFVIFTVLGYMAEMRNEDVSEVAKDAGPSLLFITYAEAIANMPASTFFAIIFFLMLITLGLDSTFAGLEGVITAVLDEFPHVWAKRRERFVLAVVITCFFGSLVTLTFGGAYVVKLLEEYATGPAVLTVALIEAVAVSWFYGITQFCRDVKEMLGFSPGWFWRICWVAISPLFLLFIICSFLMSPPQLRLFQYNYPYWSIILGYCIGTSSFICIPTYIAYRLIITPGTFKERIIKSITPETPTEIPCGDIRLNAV

CC[C@@H](Cc1ccc2ccoc2c1)NC [US20250019357, Compound S-(+)-6-MBPB]
IC50 [1]: 2.7 µM
Ki [1]: 1.2 µM

CNC(C)C(=O)c1ccc2occc2c1 (single isomer, unassigned; form 2) [US20250019357, Compound (+)-BK-5MAPB]
EC50 [2]: 3.07 µM

CC[C@H](Cc1ccc2ccoc2c1)NC [US20250019357, Compound R-6-MBPB]
EC50 [3]: 0.172 µM

CNC(C)C(=O)c1ccc2ccoc2c1 (single isomer, unassigned; form 2) [US20250019357, Compound (+)-BK-6MAPB]
EC50 [2]: > 10 µM

CC[C@@H](Cc1ccc2ccoc2c1)NC [US20250019357, Compound S-6-MBPB]
EC50 [3]: 0.0541 µM

CC[C@H](Cc1ccc2ccoc2c1)NC [US20250019357, Compound R-(-)-6-MBPB]
IC50 [1]: 5.7 µM
Ki [1]: 2.6 µM

CNC(C)C(=O)c1ccc2occc2c1 (single isomer, unassigned; form 1) [US20250019357, Compound (-)-BK-5MAPB]
EC50 [2]: 0.0777 µM

CCC(NC)C(=O)c1ccc2occc2c1 (single isomer, unassigned; form 1) [US20250019357, Compound (+)-BK-5MBPB]
EC50 [2]: > 30 µM

CCC(NC)C(=O)c1ccc2occc2c1 (single isomer, unassigned; form 2) [US20250019357, Compound (-)-BK-5MBPB]
EC50 [2]: 6.61 µM
